The text below walks through data of EP4599829A1, “USE OF IMIDAZOLIDINYL VANILLIC ACID ETHER DERIVATIVE IN TREATMENT OF DISEASE ACCOMPANIED BY FIBROSIS” (Hefei Institute of Pharmaceutical Industry Co., Ltd., priority 2022, dated 2024).

Marks after values point to notes of the source that are not given here.

Common to all, as to assay type: in vivo, Female BALB/c mice
Test [1] deals with BLM-Induced Systemic Sclerosis Mouse Model. Kind of test: Comparison with other antiplatelet drugs: skin thickening in BLM-induced systemic sclerosis mouse model. Conditions: 0.10 mmol/kg once a day for 28 days; for Skin thickness: oral (gavage) (Sodium Ozagrel: intravenous injection), mean ± SE, n = 8, blank 0.22±0.05, model 0.87±0.15. The source says:
(§1) Female BALB/c mice, weighing 18-22 g, were purchased from Beijing Weitonglihua Experimental Animal Technology Co., Ltd. and housed in an SPF environment for 1 week (with free access to drinking water during the feeding period). They were then randomly divided into 9 groups, with 10 mice in each group, namely, blank group, model group, sodium ozagrel group, dipyridamole group, clopidogrel group, cilostazol group, ticagrelor group, aspirin group, and HY-2 group. The back of mice of each group was shaved in an area of 1 cm*1 cm. Except for the blank group which was subcutaneously injected with normal saline, all other groups were subcutaneously injected with BLM 100 µL (0.5 mg/mL) for 28 consecutive days (the injection area was injected at the four corners of the shaved area for the first 4 times, and the center of the shaved area for the 5th time, and this cycle was repeated. The skin changes at the subcutaneous injection site and the weight changes of the mice were observed every week). Each treatment group was respectively given sodium ozagrel, dipyridamole, clopidogrel, cilostazol, ticagrelor, aspirin, and HY-2 30 minutes after the injection of BLM, once a day for 28 consecutive days (the dosage and administration method are shown in Table 1). Table 1 Dosage and administration method
After the last administration, the animals were sacrificed, and the back skin tissue was taken, fixed with 4% paraformaldehyde, dehydrated, paraffin-embedded and sliced. The tissue sections were stained with HE, and the pathological morphological changes of the skin tissue were examined with a microscope and the skin thickening was measured.
The experimental data were processed using GraphPad Prism 7, and the experimental groups were compared using the student t test.

Test [2] concerns thromboxane B2 (TXB2). In words: Serum TXB2 level (ELISA) in BLM-induced systemic sclerosis mouse model. The conditions noted are these: 0.10 mmol/kg once a day for 28 days; for TXB2: serum, oral (gavage) (Sodium Ozagrel: intravenous injection), mean ± SE, n = 8, blank 74.19±14.76, model 261.91±10.96.
Description: as §1
(§2) Mouse TXB2 ELISA kit was purchased from Shanghai Jianglai Biological, batch number: 20220715, antibody types: purified mouse TXB2 capture antibody and horseradish peroxidase (HRP)-labeled detection antibody; mouse TGF-β1 ELISA kit was purchased from Shanghai Jianglai Biological, batch number: 20220806, antibody types: purified mouse TGF-β1 capture antibody and horseradish peroxidase (HRP)-labeled detection antibody.
(§3) The kit uses a double-antibody one-step sandwich enzyme-linked immunosorbent assay (ELISA). Serum specimens, standards, and horseradish peroxidase (HRP)-labeled detection antibodies are added sequentially to the coated microwells pre-coated with mouse analyte capture antibodies, followed by incubation and thorough washing. The substrate TMB (3,3',5,5'-tetramethylbenzidine) is used for color development. TMB is converted to be blue under the catalysis of peroxidase (HRP) and then converted to be finally yellow under the action of acid. The depth of color is positively correlated with the content of the analyte in the serum sample. The absorbance (OD value) was measured at a wavelength of 450 nm using a microplate reader to calculate the sample concentration.
(§4) After the last administration, the animals were sacrificed and serum samples were collected. Standard wells were set on the enzyme-labeled coated plate, standard solutions of different concentrations were prepared according to the instructions, and 50uL of standard solutions of different concentrations were added to each standard well. Blank wells and test sample wells were set on the enzyme-labeled coated plate, 40uL of sample diluent was first added to the test sample well, and 20uL of test serum sample was then added. 100uL of enzyme-labeled reagent was added to each well, except the blank well. The plate was sealed with a sealing film and incubated at 37°C for 60 minutes. The sealing film was removed, and after discarding the liquid and spinning dry, each well was filled with washing solution, and stood for 30 seconds, then discarding the washing solution, repeating 5 times and spinning dry. 50uL of color developer A (containing H2O2) was first added into each well, and then 50uL of color developer B (containing substrate TMB) was added, gently shaking to mix, and color developing at 37°C in the dark for 15 minutes. 50uL of stop solution was added to each well to stop the reaction (the blue color immediately turns to yellow). The microplate reader was adjusted to zero with the blank well, and the absorbance OD value of each well was measured in sequence at a wavelength of 450nm. The measurement should be carried out within 15 minutes after adding the stop solution.

Test [3] has as its system transforming growth factor β1 (TGF-β1). In words: Serum TGF-β1 level (ELISA) in BLM-induced systemic sclerosis mouse model. Conditions: 0.10 mmol/kg once a day for 28 days; for TGF-β1: serum, oral (gavage) (Sodium Ozagrel: intravenous injection), mean ± SE, n = 8, blank 379.76±120.63, model 913.10±64.73.
Description: as §1, §2, §3, §4
(An ELISA detects its analyte on a solid surface through an enzyme-linked reagent.)

The subject of test [4] is BLM-Induced Systemic Sclerosis Mouse Model. Kind of test: Skin thickening (HE staining) in BLM-induced systemic sclerosis mouse model, dose groups. Conditions: compared with the model group. On the procedure: Female BALB/c mice, weighing 18-22 g, were purchased from Beijing Weitong Lihua Experimental Animal Technology Co., Ltd. and housed in an SPF environment for 1 week (with free access to drinking water during the feeding period). They were then randomly divided into 5 groups, 8 mice in each group, namely, blank group, model group, 15 mg/kg, 30 mg/kg, and 60 mg/kg dosage groups of sodium 4-(2-(1H-imidazol-1-yl)ethoxy)-3-methoxybenzoate (HY-2). The back of each group of mice was shaved in an area of 1 cm*1 cm. Except for the blank group which was subcutaneously injected with normal saline, all other groups were injected with BLM 100 µL (0.5 mg/mL) for 28 consecutive days (the injection area was the four corners of the shaved area for the first 4 injections, and the center of the shaved area for the 5th injection, and this cycle was repeated. The skin changes at the subcutaneous injection site and the weight changes of the mice were observed every week). After the injection of BLM, the treatment group was orally (gavaged) given the corresponding dose of sodium 4-(2-(1H-imidazole-1-yl)ethoxy)-3-methoxybenzoate, once a day, for 28 consecutive days.
After the last administration, the animals were sacrificed, and appropriate skin tissues were taken for HE staining and measurement of skin thickening.

The test system is the same in test [5]. In words: Lung histopathology (HE staining) in BLM-induced systemic sclerosis mouse model. Conditions: each dose group (15, 30, 60 mg/kg) oral (gavage) once a day for 28 days, compared with the model group. The procedure: (§5) Female BALB/c mice, weighing 18-22 g, were purchased from Beijing Weitonglihua Experimental Animal Technology Co., Ltd. and housed in an SPF environment for 1 week (with free access to water during the feeding period). They were then randomly divided into 5 groups, with 8 mice in each group, namely, blank group, model group, HY-2 15 mg/kg, 30 mg/kg, and 60 mg/kg dose groups. The back of each group of mice was shaved in an area of 1 cm*1 cm. Except for the blank group which was subcutaneously injected with normal saline, all other groups were injected with BLM 100 µL (0.5 mg/mL) for 28 consecutive days (the injection area was the four corners of the shaved area for the first 4 injections, and the center of the shaved area for the 5th injection, and this cycle was repeated. The skin changes at the subcutaneous injection site and the weight changes of the mice were observed every week). After the injection of BLM, each dose treatment group was orally (gavage) given the corresponding dose of HY-2 once a day for 28 consecutive days.
After the last administration, the animals were sacrificed, and appropriate lung tissues were taken for HE staining and slide preparation to examine the lung tissue structure and inflammatory cell infiltration.

Test [6] shares this test system. Kind of test: Collagen deposition (Masson staining) in skin and lung tissues of BLM-induced systemic sclerosis mouse model. Conditions: each dose group (15, 30, 60 mg/kg) oral (gavage) once a day for 28 days, compared with the model group, P<0.01. On the procedure:
as §5, with “administered” for “given”
After the last administration, the animals were sacrificed, and appropriate skin and lung tissues were taken for Masson staining and slide preparation to examine the collagen deposition in the skin and lung tissues. The percentage of collagen deposition was quantified using Image-Pro® Plus software.

Turning to `CC(=O)Oc1ccccc1C(=O)O` [Aspirin, aspirin], in test [1], the Skin thickness is given as 0.80±0.09^aa mm. For the same compound, the TXB2 in test [2] turned out to be 239.57 ± 13.60 pg/mL. This compound also showed a TGF-β1 in test [3] of 827.68 ± 77.88 pg/mL.

In the case of `O=C1CCc2cc(OCCCCc3nnnn3C3CCCCC3)ccc2N1` [Cilostazol, cilostazol], the Skin thickness in test [1] is given as 0.74±0.11^a mm. For the same compound, the TXB2 in test [2] is 259.32±7.13^a pg/mL. In test [3], this compound gave a TGF-β1 of 838.27 ± 65.93 pg/mL.

On to `COC(=O)[C@H](c1ccccc1Cl)N1CCc2sccc2C1` [Clopidogrel, clopidogrel], for which the Skin thickness in test [1] is 0.81±0.10^aa mm. Further, the TXB2 in test [2] was 208.46 ± 42.87 pg/mL. Also, the TGF-β1 in test [3] was 822.62 ± 76.60 pg/mL.

Consider `OCCN(CCO)c1nc(N2CCCCC2)c2nc(N(CCO)CCO)nc(N3CCCCC3)c2n1` [Dipyridamole, dipyridamole], for which the Skin thickness in test [1] is reported as 0.74 ± 0.12^a mm. For the same compound, the TXB2 in test [2] came out at 248.84 ± 38.88 pg/mL. In test [3], this compound yielded a TGF-β1 of 867.56 ± 113.73 pg/mL.

For `COc1cc(C(=O)[O-])ccc1OCCn1ccnc1.[Na+]` [HY-2, sodium 4-(2-(1H-imidazol-1-yl)ethoxy)-3-methoxybenzoate], in test [1], the Skin thickness is 0.59±0.06 mm. For the same compound, in test [1] (P<0.01), the “skin thickness compared with the model group (in words)” value was “significantly decreased”. Also, in test [4] (30 mg/kg oral (gavage) once a day for 28 days, P<0.05), the skin thickening result is “significantly inhibited”. Also, in test [4] (60 mg/kg oral (gavage) once a day for 28 days, P<0.01), the skin thickening result is “significantly inhibited”. Also, the “effect on TXB2 in serum (in words)” value in test [2] (vs model group) was “significantly reduce”. For the same compound, the TXB2 in test [2] stood at 215.00 ± 38.92 pg/mL. Moreover, the “effect on TGF-β1 in serum (in words)” value in test [3] (vs model group) is “significantly reduce”. For the same compound, the TGF-β1 in test [3] was 783.04 ± 53.77 pg/mL. For the same compound, in test [5], the “lung tissue structure and inflammatory cell infiltration” value was “regular and infiltrated by less inflammatory cells”. Also, in test [6], the “collagen deposition in the lung tissue” value was “significantly reduced” and the “collagen deposition in the skin” value is given as “significantly reduced”.

With `O=C(O)/C=C/c1ccc(Cn2ccnc2)cc1` [Sodium Ozagrel, sodium ozagrel], the Skin thickness in test [1] was 0.82±0.16^aa mm. Moreover, the TXB2 in test [2] was 196.54 ± 45.30 pg/mL. For the same compound, the TGF-β1 in test [3] is 884.74±33.45^aa pg/mL.

For `CCCSc1nc(N[C@@H]2C[C@H]2c2ccc(F)c(F)c2)c2nnn([C@@H]3C[C@H](OCCO)[C@@H](O)[C@H]3O)c2n1` [Ticagrelor, ticagrelor], the Skin thickness in test [1] is reported as 0.74±0.07^aa mm. The TXB2 in test [2] was determined as 197.76 ± 42.08 pg/mL. The TGF-β1 in test [3] was 847.62±43.73^a pg/mL.
